These results are taken from patent publication US9486427B2, “Administration of aerosolised iloprost” (VECTURA GMBH, priority 2012, dated 2016).

Read-outs that look alike come from different tables or passages of the source.

Data set [1] concerns patients suffering from pulmonary hypertension (PH). The experiment in a line: Iloprost inhalation in six further patients (Example 4). It counts as in vivo, human. To be noted: rapid inhalation as in Example 3. The procedure: Six further patients suffering from pulmonary hypertension (PH) were treated with iloprost inhalation as in Example 3.
For data set [2] the following is noted: cited from earlier work.
The conditions of data set [3]: 2.8 μg in 2 minutes, ultrasonic nebuliser; cited from earlier work.
The test system of data set [4] is patients with pulmonary arterial hypertension. The experiment in a line: Clinical pilot study of safety and tolerability of rapidly inhaled nebulised iloprost (Example 3). It counts as in vivo, human. The procedure:
A clinical pilot study to evaluate the safety and tolerability of nebulised iloprost administered by inhalation according to the invention was conducted with 4 patients. Eligible were male and female patients with pulmonary arterial hypertension in the age from 18 to 70 years having a mean pulmonary arterial blood pressure (PAP) higher than 25 mm Hg, a pulmonary vascular resistance (PVR) higher than 240 dyn*s*cm^−5, a central venous pressure (CVP) higher than 3 mm Hg, and a pulmonary capillary wedge pressure (PCWP) lower than 12 mm Hg. Excluded were patients with a contraindication for cardiac catheterisation (such as coagulopathy, bleeding disorder, acute infection, severe cardiac dysrhythmia), pregnancy, systemic systolic blood pressure below 110 mm Hg, highly impaired ventricular function with cardiac index below 1.8 L/min*m^2, and known lack of pulmonary vascular reactivity. Patients were monitored by ECG, pulse oxymetry, and non-invasive blood pressure measurement. An intracardiac catheter was introduced into the distal pulmonary artery to measure PAP, CVP, PCWP, and cardiac output. Also measured were the heart rate, systemic arterial pressure (SAP), systemic vascular resistance (SVR), central arterial and venous blood gases. After the initial determination of all parameters the reactivity of the pulmonary vasculature to oxygen (2 to 4 L/min) and nitric oxide (20 ppm) was tested. Subsequently, patients inhaled a single dose of 2.5 μg of nebulised iloprost in two consecutive breaths, using the same inhalation system and iloprost composition as described in Example 1. Haemodynamics parameters and clinical condition of the patients were assessed before and up to 30 minutes after inhalation. In the absence of adverse effects, a second inhalation maneuver with 4 consecutive breaths corresponding to a dose 5 μg iloprost was performed, again followed by an observation period of at least 30 minutes.

Setting [5] is: 2.5 μg and 5 μg rapid inhalation.

As to `CC#CCC(C)[C@H](O)/C=C/[C@@H]1[C@H]2C/C(=C/CCCC(=O)O)C[C@H]2C[C@H]1O` (stereo partly drawn) [Iloprost, 5-{(E)-(1S,5S,6R,7R)-7-hydroxy-6[(E)-(3S,4RS)-3-hydroxy-4-methyl-1-octen-6-inyl]-bi-cyclo[3.3.0]octan-3-ylidene}pentanoic acid], in data set [1], the adverse effects result is “no adverse effects were observed other than the SAP and SVR changes which were mild”. In addition, in data set [1] (PAH, iPAH, portopulmonary, CTEPH), the pulmonary vascular effects entry was “very comparable to those found in Example 3”. Besides, the solubility entry in data set [2] (aqueous buffer pH 9) was “sparingly soluble”; in data set [2] (distilled water and aqueous buffer at pH 3 and pH 5), “very slightly soluble”; in data set [2] (methanol, ethanol, ethyl acetate, acetone and aqueous buffer at pH 7), “soluble”. Besides, in data set [2], the aqueous solubility entry is “rather poor”. For the same compound, in data set [3], the “systemic effects of rapid inhalation (drop in blood pressure, decrease in systemic vascular resistance, flush, jaw pain)” value is listed as “adverse systemic effects”. The “systemic side effects (SAP and SVR changes) versus slow inhalation of iloprost” value in data set [4] (setting [5]) is listed as “similar”. In addition, in data set [4] (setting [5]), the “therapeutic pulmonary vascular effects (PAP and PVR changes) versus slow inhalation of iloprost” value was “comparable to those observed after conventional iloprost treatment”. Besides, in data set [4] (2.5 μg in two breaths, then 5 μg in 4 breaths, inhaled, 4 patients), the “tolerability of the treatment” value is on record as “all patients tolerated the treatment well”.
